Test results: patent US20040048262A1, “Methods for determining the bilogical effects of compounds on gene expression” (priority 2003, published 2004)

Tested on: PC12 cells
Assay: Transcription factor DNA-binding activity profile, nuclear extracts of NGF-treated PC12 cells, random 16-mer library (FIG. 2)
Format: cell-based
Details: 200 ng/ml NGF-beta, 5 hr, vs untreated
Text: FIG. 2 is a bar graph showing the effects of nerve growth factor (NGF) treatment on transcription factor DNA-binding activities in PC12 cells. The identity of the specific transcription factors whose binding activity is being detected are listed on the X-axis. The level of DNA binding activity for each individual transcription factor is depicted as a percentage of the total number of DNA fragments sequenced from the “bound” fraction of the DNA library used in the binding reactions and containing the cognate site for that particular protein (shown as a numerical value on the Y-axis). The level of binding activities for all the proteins detected as a result of their cognate binding sites being found in the “bound” fraction of the DNA library constitutes the transcription factor activity profiles for PC12 cells and PC12 cells following NGF treatment. The profiles generated provide a useful indicator of the mechanism of action of the compound being used for the cell treatrment. For example, if the mechanism of action of NGF was to increase the expression of a particular cell surface receptor, then one would expect to see altered levels of binding activities for those transcription factors known to regulate the expression of the gene that encodes that particular receptor in the NGF-treated sample. If one did indeed see altered binding activity levels of factors known to regulate a particular receptor gene or set of genes, then one could immediately assay for those changes in gene expression as a result of inference from the transcription factor activity profile.
In a specific example, PC12 cells were grown in high glucose DMEM containing 10% horse serum and 5% fetal calf serum. For differentiation, cells were transferred to serum-free medium containing N-2 Supplement (Life Technologies) and 200 ng/ml Nerve Growth Factor-beta (Sigma). Cells were harvested after 5 hr and nuclear extracts were prepared as described above. A positive response of the PC12 cells to NGF was monitored by EMSA of AP-1 activity.
In this example, nuclear extracts were incubated with a random 16-mer library and the DNA present in specific protein/DNA complexes was isolated and sequenced. Known transcription factor binding sites present in the DNA sequences were counted as described in Example 1 and the data generated are presented in FIG. 2 in the same mainer as in Example 2. Thus, the bars indicate the percentage of DNA fragments containing selected cis sites that were isolated in binding reactions containing nuclear extracts from either untreated (white bars) or NGF-treated (black bars) PC12 cells. It can be seen that NGF-treatment leads to an increase in binding activity for AP 1, ATF, TCF11 (among others), while for example E2F and RFX1 activities are reduced after NGF treatment.

In the case of NGF: Nerve Growth Factor-beta (Sigma), the “change in E2F activity after NGF treatment” value is reported as “reduced”, the “change in RFX1 activity after NGF treatment” value is reported as “reduced” and the “change in binding activity for AP 1 after NGF treatment” value is reported as “increase”. For the same substance, the “change in binding activity for ATF after NGF treatment” value was “increase” and the “change in binding activity for TCF11 after NGF treatment” value was “increase”.
